The values that follow come from ChEMBL document CHEMBL1151454, “Failures in clinical treatment of Staphylococcus aureus Infection with daptomycin are associated with alterations in surface charge, membrane phospholipid asymmetry, and drug binding” (Antimicrob Agents Chemother, 2008).

≈ marks a conversion by molar mass, not a printed value. Calls of active or inactive are those of the source. The rule behind the calls is not given here.

The subject of series [1] is Staphylococcus aureus. In words: Antibacterial activity against Staphylococcus aureus SA113 harboring null mutation in mprF gene by Etset. The format is functional.
For series [2], the system named is Staphylococcus aureus. In words: Antibacterial activity against Staphylococcus aureus SA113 by Etset. The series is classed as functional.
Series [3] relates to Staphylococcus aureus. In words: Induction of cell membrane depolarization in daptomycin-nonsusceptible Staphylococcus aureus isolate 701 bloodstream form isolated from patient with endocarditis at 40 ug/ml after 60 mins by flow cytometry. The series is classed as functional, organism-based.
Series [4] deals with Staphylococcus aureus. Put plainly: Antibacterial activity against daptomycin-nonsusceptible Staphylococcus aureus isolate 701 bloodstream form isolated from patient with endocarditis by Etest. The series is classed as functional.
Series [5] concerns Staphylococcus aureus. Put plainly: Drug binding to methicillin-susceptible Staphylococcus aureus isolate 616 bloodstream form isolated from patient with endocarditis at 6 ug after 10 mins by radial diffusion assay. The series is classed as ADME, organism-based. Particulars: in vivo.
The subject of series [6] is Staphylococcus aureus. In words: Reduction of membrane permeabilization in methicillin-susceptible Staphylococcus aureus isolate 616 bloodstream form isolated from patient with endocarditis assessed as calcein retention at 1.5 ug/ml after 120 mins by fluorometric analysis. The format is functional, organism-based.
Series [7] relates to Staphylococcus aureus. Put plainly: Induction of autolysis in daptomycin-nonsusceptible Staphylococcus aureus isolate 703 bloodstream form isolated from patient 6 ug/ml within 4 to 24 hrs. The format is functional, organism-based.
Series [8] has as its system Staphylococcus aureus. Put plainly: Reduction of membrane permeabilization in daptomycin-nonsusceptible Staphylococcus aureus isolate 701 bloodstream form isolated from patient with endocarditis assessed as calcein retention at 1.5 ug/ml after 120 mins by fluorometric analysis. The series is classed as functional, organism-based.
The test system of series [9] is Staphylococcus aureus. In words: microbe, parasite or virus in culture. Particulars: 616.
Description: Antibacterial activity against methicillin-susceptible Staphylococcus aureus isolate 616 bloodstream form isolated from patient with endocarditis by Etest
Series [10] concerns Staphylococcus aureus. Put plainly: Induction of cell membrane depolarization in daptomycin-nonsusceptible Staphylococcus aureus isolate 703 bloodstream form isolated from patient with endocarditis at 6 ug/ml after 60 mins by flow cytometry. The series is classed as functional, organism-based. A general note: Flow cytometry measures light scatter and fluorescence of single cells or particles in a stream.

Series [11] concerns Staphylococcus aureus. Put plainly: Induction of cell membrane depolarization in daptomycin-nonsusceptible Staphylococcus aureus isolate 701 bloodstream form isolated from patient with endocarditis at 0.75 ug/ml after 60 mins by flow cytometry. The series is classed as functional, organism-based.
Series [12] concerns Staphylococcus aureus. Put plainly: Drug binding to daptomycin-nonsusceptible Staphylococcus aureus isolate 701 bloodstream form isolated from patient with endocarditis at 6 ug after 10 mins by radial diffusion assay. The series is classed as ADME, organism-based.
Series [13] has as its system Staphylococcus aureus. In words: Antibacterial activity against daptomycin-transitional Staphylococcus aureus isolate 629 bloodstream form isolated from patient with endocarditis assessed as inhibition on heterogeneous subpopulation survival rate at 0.5 and 1 ug/ml after 48 hrs. The series is classed as functional, organism-based.
The subject of series [14] is Staphylococcus aureus. In words: Antibacterial activity against methicillin-susceptible Staphylococcus aureus isolate 616 bloodstream form isolated from patient with endocarditis assessed as inhibition on heterogeneous subpopulation survival rate at 0.5 and 1 ug/ml after 48 hrs. The series is classed as functional, organism-based.
Series [15] concerns Staphylococcus aureus. In words: Antibacterial activity against daptomycin-nonsusceptible Staphylococcus aureus isolate 703 bloodstream form isolated from patient with endocarditis by Etest. The series is classed as functional.
Series [16] concerns Staphylococcus aureus. Put plainly: Induction of cell membrane depolarization in methicillin-susceptible Staphylococcus aureus isolate 616 bloodstream form isolated from patient with endocarditis at 0.75 ug/ml after 60 mins by flow cytometry. The format is functional, organism-based.
Series [17] concerns Staphylococcus aureus. In words: Reduction of membrane permeabilization in daptomycin-nonsusceptible Staphylococcus aureus isolate 703 bloodstream form isolated from patient with endocarditis assessed as calcein retention at 1.5 ug/ml after 120 mins by fluorometric analysis. The format is functional, organism-based.
Series [18] relates to Staphylococcus aureus. Put plainly: Drug binding to daptomycin-nonsusceptible Staphylococcus aureus isolate 703 bloodstream form isolated from patient with endocarditis at 6 ug after 10 mins by radial diffusion assay. The format is ADME, organism-based.
Series [19] relates to Staphylococcus aureus. In words: Induction of autolysis in daptomycin-nonsusceptible Staphylococcus aureus isolate 701 bloodstream form isolated from patient 6 ug/ml within 4 to 24 hrs. The series is classed as functional, organism-based.
The test system of series [20] is Staphylococcus aureus. In words: Induction of autolysis in methicillin-susceptible Staphylococcus aureus isolate 616 bloodstream form isolated from patient 6 ug/ml within 4 to 24 hrs. The format is functional, organism-based.
The test system of series [21] is Staphylococcus aureus. Put plainly: Induction of cell membrane depolarization in daptomycin-nonsusceptible Staphylococcus aureus isolate 703 bloodstream form isolated from patient with endocarditis at 0.75 ug/ml after 60 mins by flow cytometry. The series is classed as functional, organism-based.
The test system of series [22] is Staphylococcus aureus. In words: Induction of cell membrane depolarization in daptomycin-transitional Staphylococcus aureus isolate 629 bloodstream form isolated from patient with endocarditis at 0.75 ug/ml after 60 mins by flow cytometry. The series is classed as functional, organism-based.
The subject of series [23] is Staphylococcus aureus. Put plainly: Induction of cell membrane depolarization in daptomycin-transitional Staphylococcus aureus isolate 629 bloodstream form isolated from patient with endocarditis at 40 ug/ml after 60 mins by flow cytometry. The series is classed as functional, organism-based.
The subject of series [24] is Staphylococcus aureus. In words: Drug binding to daptomycin-transitional Staphylococcus aureus isolate 629 bloodstream form isolated from patient with endocarditis at 6 ug after 10 mins by radial diffusion assay. The format is ADME, organism-based.
The test system of series [25] is Staphylococcus aureus. In words: Induction of cell membrane depolarization in methicillin-susceptible Staphylococcus aureus isolate 616 bloodstream form isolated from patient with endocarditis at 40 ug/ml after 60 mins by flow cytometry. The series is classed as functional, organism-based.
In series [26] the test system is Staphylococcus aureus. In words: Reduction of membrane permeabilization in daptomycin-transitional Staphylococcus aureus isolate 629 bloodstream form isolated from patient with endocarditis assessed as calcein retention at 1.5 ug/ml after 120 mins by fluorometric analysis. The series is classed as functional, organism-based.
In series [27] the test system is Staphylococcus aureus. In words: Induction of cell membrane depolarization in daptomycin-transitional Staphylococcus aureus isolate 629 bloodstream form isolated from patient with endocarditis at 6 ug/ml after 60 mins by flow cytometry. The format is functional, organism-based.
Series [28] has as its system Staphylococcus aureus. In words: Antibacterial activity against daptomycin-nonusceptible Staphylococcus aureus isolate 703 bloodstream form isolated from patient with endocarditis assessed as inhibition on heterogeneous subpopulation survival rate at 0.5 and 4 ug/ml after 48 hrs. The format is functional, organism-based.
The test system of series [29] is Staphylococcus aureus. Put plainly: Induction of cell membrane depolarization in daptomycin-nonsusceptible Staphylococcus aureus isolate 703 bloodstream form isolated from patient with endocarditis at 40 ug/ml after 60 mins by flow cytometry. The format is functional, organism-based.
Series [30] has as its system Staphylococcus aureus. Put plainly: Antibacterial activity against daptomycin-transitional Staphylococcus aureus isolate 629 bloodstream form isolated from patient with endocarditis by Etest. The series is classed as functional.
The test system of series [31] is Staphylococcus aureus. In words: Induction of cell membrane depolarization in methicillin-susceptible Staphylococcus aureus isolate 616 bloodstream form isolated from patient with endocarditis at 6 ug/ml after 60 mins by flow cytometry. The format is functional, organism-based.
The test system of series [32] is Staphylococcus aureus. Put plainly: Antibacterial activity against daptomycin-nonsusceptible Staphylococcus aureus isolate 701 bloodstream form isolated from patient with endocarditis assessed as inhibition on heterogeneous subpopulation survival rate at 0.5 and 4 ug/ml after 48 hrs. The format is functional, organism-based.
Series [33] deals with Staphylococcus aureus. Put plainly: Induction of cell membrane depolarization in daptomycin-nonsusceptible Staphylococcus aureus isolate 701 bloodstream form isolated from patient with endocarditis at 6 ug/ml after 60 mins by flow cytometry. The series is classed as functional, organism-based.
In series [34] the test system is Staphylococcus aureus. Put plainly: Induction of autolysis in daptomycin-nonsusceptible Staphylococcus aureus isolate 701 bloodstream form isolated from patient 50 ug/ml within 24 hrs. The format is functional, organism-based.
For series [35], the system named is Staphylococcus aureus. In words: Induction of autolysis in daptomycin-nonsusceptible Staphylococcus aureus isolate 703 bloodstream form isolated from patient 50 ug/ml within 24 hrs. The format is functional, organism-based.
The test system of series [36] is Staphylococcus aureus. Put plainly: Induction of autolysis in daptomycin-transitional Staphylococcus aureus isolate 629 bloodstream form isolated from patient 50 ug/ml within 24 hrs. The format is functional, organism-based.
In series [37] the test system is Staphylococcus aureus. In words: Antibacterial activity against daptomycin-nonsusceptible Staphylococcus aureus isolate 701 bloodstream form isolated from patient with endocarditis assessed as inhibition on heterogeneous subpopulation survival rate at 0.25 and 1 ug/ml after 48 hrs. The format is functional, organism-based.
Series [38] has as its system Staphylococcus aureus. Put plainly: Antibacterial activity against methicillin-susceptible Staphylococcus aureus isolate 616 bloodstream form isolated from patient with endocarditis assessed as inhibition on heterogeneous subpopulation survival rate at 0.25 and 1 ug/ml after 48 hrs. The series is classed as functional, organism-based.
For series [39], the system named is Staphylococcus aureus. Put plainly: Induction of autolysis in daptomycin-nonsusceptible Staphylococcus aureus isolate 703 bloodstream form isolated from patient 50 ug/ml measured at 18 hrs. The series is classed as functional, organism-based.
Series [40] deals with Staphylococcus aureus. Put plainly: Induction of autolysis in methicillin-susceptible Staphylococcus aureus isolate 616 bloodstream form isolated from patient 50 ug/ml within 24 hrs. The series is classed as functional, organism-based.
In series [41] the test system is Staphylococcus aureus. Put plainly: Antibacterial activity against daptomycin-transitional Staphylococcus aureus isolate 629 bloodstream form isolated from patient with endocarditis assessed as inhibition on heterogeneous subpopulation survival rate at 0.25 and 1 ug/ml after 48 hrs. The format is functional, organism-based.
Series [42] deals with Staphylococcus aureus. In words: Antibacterial activity against daptomycin-nonsusceptible Staphylococcus aureus isolate 703 bloodstream form isolated from patient with endocarditis assessed as inhibition on heterogeneous subpopulation survival rate at 0.25 and 1 ug/ml after 48 hrs. The series is classed as functional, organism-based.

For `CCCCCCCCCC(=O)N[C@@H](Cc1c[nH]c2ccccc12)C(=O)N[C@H](CC(N)=O)C(=O)N[C@@H](CC(=O)O)C(=O)N[C@@H]1C(=O)NCC(=O)N[C@@H](CCCN)C(=O)N[C@@H](CC(=O)O)C(=O)N[C@H](C)C(=O)N[C@@H](CC(=O)O)C(=O)NCC(=O)N[C@H](CO)C(=O)N[C@@H]([C@H](C)CC(=O)O)C(=O)N[C@@H](CC(=O)c2ccccc2N)C(=O)O[C@@H]1C`, the MIC amounted to 0.094 µg/mL (≈ 0.058 µM) in series [1]; 0.38 µg/mL (≈ 0.234 µM) in series [2]; 2 µg/mL (≈ 1.23 µM) in [4]; 0.5 µg/mL (≈ 0.309 µM) in series [9]; 2 µg/mL (≈ 1.23 µM) in series [15]; 0.75 µg/mL (≈ 0.463 µM) in series [30]. For the same molecule, the outcome in [3], in series [6], in [7], in [10], in [11] and in [13] was inactive. Moreover, the outcome in [14], in [19], in series [21], in [22], in series [23] and in [25] was inactive. Besides, the result in series [27], in series [28], in series [29], in [32] and in series [33] was inactive. The Drug uptake worked out at 5.4 µg/mL in [5], 2.32 µg/mL in [12], 2.24 µg/mL in series [18] and 1.61 µg/mL in series [24]. Further, the outcome in series [8], in series [16], in series [17], in series [20], in series [26] and in [31] was Active.
On to `CN[C@H](CC(C)C)C(=O)N[C@H]1C(=O)N[C@@H](CC(N)=O)C(=O)N[C@H]2C(=O)N[C@H]3C(=O)N[C@H](C(=O)N[C@H](C(=O)O)c4cc(O)cc(O)c4-c4cc3ccc4O)[C@H](O)c3ccc(c(Cl)c3)Oc3cc2cc(c3O[C@@H]2O[C@H](CO)[C@@H](O)[C@H](O)[C@H]2O[C@H]2C[C@](C)(N)[C@H](O)[C@H](C)O2)Oc2ccc(cc2Cl)[C@H]1O`, for which the outcome in series [34], in series [35], in series [36], in [37], in series [38] and in series [39] was inactive. In addition, the result in series [41] and in series [42] was inactive. Also, the outcome in [40] was Active.
